Reference: patent US20060088596A1, “Solubilizing a drug for use in a coating” (ATRIUM MEDICAL CORPORATION, priority 2004, published 2006)
Each block holds one molecule with its values, some of them ahead of it.

Tests used:
[1] = tested on: Porcine Coronary Model; details: stent coated with agent solubilized in eicosapentaenoic acid oil vs eicosapentaenoic acid oil coated stents; cited from earlier work
[2] = Maximum solubility / drug loading of therapeutic agent in vitamin E / bio-absorbable carrier base coating (crystal inspection after solvent removal); type: physicochemical; details: for maximum solubility: NMP
Excerpt: The amount of solvent that can be included in compositions of the present invention is not particularly limited. In accordance with one embodiment of the present invention, the amount of the therapeutic agent to be dissolved can be an amount up to the maximum amount that can be dissolved in the solvent, vitamin E compound and the bio-absorbable carrier component. The maximum amount of the therapeutic agent that can be dissolved is readily determined by simple mixing, as the presence of any non-dissolved therapeutic agent is apparent after solvent removal on visual inspection. In various embodiments, the amount of the therapeutic agent will be less than the maximum that can be dissolved. Upon administration to a subject of the therapeutic agent dissolved in the bio-absorbable carrier and the solvent, the amount of the given solvent can be limited to a pharmaceutically acceptable amount, which can be readily determined by one of skill in the art. In various aspects, it can be appropriate to include amounts of solvents in excess of pharmaceutically acceptable amounts, with excess solvent removed prior to providing the administration of the composition using conventional techniques such as evaporation.
Referring again to FIG. 1, the ratio of a vitamin E compound and the bio-absorbable carrier component is then determined (step 130). […] The bio-absorbable carrier component can include fish oil, fish oil mono, di and triglycerides, free fatty acids, fatty acid esters, partially oxidized oil, or hydrolyzed oil and any derivatives. After the formulations are made the solvent is removed from the sample under vacuum and the drug formulation is inspected under a microscope for crystal formation. The level of soluble drug can be influenced by such factors as vitamin E level, fish oil level, fatty acid ester content, free fatty acid content, mono, di or triglyceride content, presence of oxidation, or by hydrolysis byproducts of the oil. The amount of soluble drug can also be effected by the solvent and/or solvent loading that is used to load the drug into the formulation.
Referring again to FIG. 1, the bio-absorbable carrier component and the vitamin E compound or a combination thereof are provided (step 130). In accordance with one aspect of the present invention, the bio-absorbable carrier component and the vitamin E compound can be mixed together, for example, by vortexing, sonicating, stirring, rolling, or shaking, to form a second mixture (step 140). Accordingly, the second mixture can be mixed first, the first mixture can be mixed first, or the first mixture and the second mixture can be mixed substantially simultaneously. The first mixture and the second mixture can then be mixed (step 150) such that the therapeutic agent is dissolved, or, if the therapeutic agent was previously dissolved in the solvent, the therapeutic agent remains dissolved. After mixing the first mixture and the second mixture, the solvent is removed by techniques well known in the art, for example, by vacuum, washing, heating, evaporation and the like (step 160). Upon removal of the solvent, the resulting solution can be inspected for presence of crystal formation by techniques well known in the art (step 170). Suitable techniques for inspection for the presense of crystal formation include, for example, visual inspection, microscopic inspections, as well as chemical analysis techniques such as scanning electron microscopy (SEM), environmental scanning electron microscopy (ESEM), differential scanning calorimetry (DSC) and atomic force microscopy (AFM).
A bio-absorbable carrier component in combination with a vitamin E compound was made by mixing 1.5 grams of vitamin E and 3.5 grams of fish oil to form a base coating (30% vitamin E). A sample was then prepared by first dissolving 28 mg of rapamycin in 529 mg of NMP (N-methyl-2-pyrrolidone).

Structure (SMILES): C=C1[C@@H](C)[C@H]2[C@H](Cc3ccccc3)NC(=O)[C@]23[C@H](OC(C)=O)/C=C/[C@@](C)(O)C(=O)[C@@H](C)C/C=C/[C@H]3[C@@H]1O [cytochalasin D]
less area stenosis compared to the control group [1]: 38%
less intimal hyperplasia compared to the control group [1]: 39%

maximum solubility ([2]; 70% vitamin E and 30% fish oil fatty acid formulation): greater than 28%
maximum solubility ([2]; 70% vitamin E and 30% fish oil formulation): 11.5%
dissolution state of drug in coating after drying ([2]; 70% vitamin E and 30% fish oil, 9% by weight loading using N-methyl-2-pyrrolidone): totally dissolved
dissolution state of drug in coating after drying ([2]; 70% vitamin E and 30% fish oil, 9% by weight loading using ethanol): forms crystals
maximum level of drug loading attainable before crystals began to form after drying ([2]; 70% vitamin E/30% fish oil base coat, drug loaded from NMP): 11.5%
maximum level of drug loading attainable before crystals began to form after drying ([2]; 70% vitamin E/30% fish oil fatty acids (FOFA) base coat, drug loaded from NMP): 28%
Structure (SMILES): COc1ccc2[nH]cc(CCNC(C)=O)c2c1 [melatonin]

maximum level of drug loading attainable before crystals began to form after drying ([2]; 70% vitamin E/30% fish oil base coat, drug loaded from ethanol): 4.9%
dissolution state of drug in coating after drying ([2]; 70% vitamin E/30% fish oil, 4.9% by weight loading using N-methyl-2-pyrrolidone): not totally dissolved
dissolution state of drug in coating after drying ([2]; 70% vitamin E/30% fish oil, 5% by weight loading using ethanol): completely dissolved
Structure (SMILES): CC(=O)O[C@H]1C(=O)[C@@]2(C)[C@H]([C@H](OC(=O)c3ccccc3)[C@]3(O)C[C@H](OC(=O)[C@H](O)[C@@H](NC(=O)c4ccccc4)c4ccccc4)C(C)=C1C3(C)C)[C@]1(OC(C)=O)CO[C@@H]1C[C@@H]2O [paclitaxel]
